Experimental data reported in patent US20080242729A1, “Rxr Antagonists in the Treatment of Inflammatory Diseases” (priority 2004, published 2008).

Columns and labels:
[1] = test system: human skin; assay: Clinical pilot trial: inflammation potential on healthy, non-inflamed human skin (epicutaneous); assay type: in vivo
From the text: In a clinical pilot trial on one healthy volunteer compound A is applied epicutaneously in a concentration of 1% for its inflammation potential compared to that of the strong inflammation inducing agent 9-cis RA in concentrations of 0.1%, 0.3% and 1%.
The compounds are solved or suspended in ethanol/propylene glycol (1:1). They are applied epicutaneously twice daily, 7 days a week, for two consecutive weeks. The site of application is an area of 3×3=9 cm^2 on the abdominal skin. The volume is 0.1 ml per application.
The following signs and symptoms of skin inflammation are recorded: Erythema, desquamation (scaling), pruritus, burning, pain, exsudation, edema, ulceration. They are classified on a scale of:
Treatment period lasts from day 1 to 14, the post-treatment observation period from day 15 to day 28

[2] = test system: MMP-1 mRNA; assay: MMP-1 mRNA accumulation in synovial fibroblasts (real time PCR); assay type: cell-based, human
Experimental: The effect of RXR antagonists on the activity of synovial fibroblasts, dependent on their state of activation, i.e. modified by a concomitant stimulation by the inflammatory cytokine Interleukin-1β (IL-1β), is determined. Furthermore, it is determined whether this is accompanied by a modulation in the accumulation of the mRNA encoding catabolic enzyme matrix metalloproteinase-1 (MMP-1), responsible for degradation of human cartilage and consequently joint destruction in man. Adherent synovial fluid cells taken from a patient with RA are used after 5 passages in an in vitro assay for cartilage destruction. The cells incubated in flasks coated with 0.1% (0.1 g/100 ml) human cartilage powder are fixed using Matrigel® (BD Biosciences, Becton, Dickinson & Co., Boston, Miss., USA). The release of sulphated glycosaminoglycan (sGAG) into the culture medium is monitored by a commercial calorimetric test according to a method described by S. Björnsson, see Anal. Biochem. 256, 229-237 (1998) using an alcian blue dot plot analysis, and the accumulation of mRNA encoding MMP-1 is quantified by real time PCR (TaqMan® (Roche Diagnostics, Basle, Switzerland)). […] This is conducted in the presence or absence of IL-1β (100 pg/ml).

[3] = test system: synovial fibroblasts / human cartilage; assay: In vitro cartilage degradation by synovial fibroblasts from a RA patient, release of sGAG; assay type: cell-based
Experimental: The effect of RXR antagonists on the activity of synovial fibroblasts, dependent on their state of activation, i.e. modified by a concomitant stimulation by the inflammatory cytokine Interleukin-1β (IL-1β), is determined. Furthermore, it is determined whether this is accompanied by a modulation in the accumulation of the mRNA encoding catabolic enzyme matrix metalloproteinase-1 (MMP-1), responsible for degradation of human cartilage and consequently joint destruction in man. Adherent synovial fluid cells taken from a patient with RA are used after 5 passages in an in vitro assay for cartilage destruction. The cells incubated in flasks coated with 0.1% (0.1 g/100 ml) human cartilage powder are fixed using Matrigel® (BD Biosciences, Becton, Dickinson & Co., Boston, Miss., USA). The release of sulphated glycosaminoglycan (sGAG) into the culture medium is monitored by a commercial calorimetric test according to a method described by S. Björnsson, see Anal. Biochem. 256, 229-237 (1998) using an alcian blue dot plot analysis, and the accumulation of mRNA encoding MMP-1 is quantified by real time PCR (TaqMan® (Roche Diagnostics, Basle, Switzerland)).
The retinoid agonists all-trans retinoic acid and 9-cis retinoic acid, both physiological metabolites of vitamin A, as well as the RXR antagonist compound A, diluted first in ethanol, and then diluted with vehicle or medium to the desired dose/concentration are tested in a time course (0-35 days for the in vitro assay, 0-48 hours for MMP-1 mRNA, see tables 7, 8 and 10) and dose-dependent (10^−7 to 10^−9 M, see tables 5, 6 and 9). This is conducted in the presence or absence of IL-1β (100 pg/ml).

[4] = test system: normal skin of mice; assay: Effect on normal, non-inflamed skin of mice; assay type: in vivo, mice (C57BL/6); settings: mouse ears
Experimental: The effect of the RXR antagonist compound A on normal skin of mice is investigated. The ears of C57BL/6 mice are treated epicutaneously (topically) for 4 consecutive days with compound A in a concentration of 0.05% and 2.5% in acetone/ethanol (1:1, v/v). Comparison with vehicle control. Daily observation of skin reactions, in particular inflammation, erythema, desquamation, and edema follows. Myeloperoxidase (MPO) activity is determined. The activity of MPO is considered the most sensitive criterium for the assessment of inflammation of the skin (see above, Examples 1 and 2).

[5] = test system: human skin; assay: Clinical phase I trial: skin inflammation induced by Candidin or UV-B irradiation in healthy volunteers; assay type: in vivo; settings: Candidin intradermal or UV-B induced, topical treatment days 1-3, 4 volunteers; compound A 1% lotion, comparators as creams
Experimental: Four healthy volunteers participate. Inclusion criteria are: Age above 18 years, male or female. They are informed, with written letter of consent. Exclusion criteria are: Preexistant dermatological diseases, known allergy to test agents.
Inflammation inducing agents: Candidin is administered intradermally (see also D. Poffet, Comparaison entre le pouvoir vaso-constricteur d'un corticoide topique et l'inhibition de la dermite à la candidine après intradermoréaction (IDR). Thèse, Université de Genève, 1984). UV-B rays are administered by a UV-B lamp.
Inflammation is measured quantitatively. The area of the inflamed skin is measured in cm^2. The thickness of the skin is monitored by Ultrasound at 20 MHz. Erythema is measured by calorimetric determination employing a Minolta CR 20. […]
All determinations are recorded on a scale from 0 to 4: • 0=no reduction • 1=slight reduction (10 to 20%) • 2=moderate reduction (21 to 40%) • 3=marked reduction (41 to 70%) • 4=very marked reduction (71 to 100%) • Compared to vehicle control.

[6] = test system: human skin; assay: Clinical pilot trial: preventive and therapeutic effect on 9-cis RA induced human skin inflammation; assay type: in vivo; settings: Therapy: 9-cis RA 0.3% day 1 to day 14, compound A 1% from day 15
Experimental: In this pilot clinical trial on one healthy volunteer, the substance 9-cis RA and compound A are administered epicutaneously. The inflammation-inducing agent 9-cis RA is used in a concentration of 0.3%. The RXR antagonist compound A is applied in a concentration of 1%. The compounds are solved in ethanol/propylene glycol (1:1) and administered twice daily. The site of application is the abdominal skin, with various areas of 3×3=9 cm^2. Volume per application is 0.1 ml.
The following three clinical settings at different sites are chosen:
1. Induction of Skin Inflammation by 9-cis RA • 9-cis RA is administered as a 0.3% solution twice daily from day 1 to day 14. The vehicle is administered from day 15 to disappearances of skin inflammation.
2. Prevention of 9-cis RA-Induced Skin Inflammation by RXR Antagonist Compound A • 9-cis RA solution of 0.3% is administered twice daily from day 1 to day 14, each time followed subsequently by application of compound A as a 1% solution.
3. Therapy of 9-Cis RA-Induced Skin Inflammation by RXR Antagonist Compound A • 9-cis RA solution of 0.3% is administered twice daily from day 1 to day 14. Compound A as a 1% solution is administered from day 15 until disappearance of skin inflammation.
The signs and symptoms of skin inflammation are recorded on a 0-4 scale, as described in example 16. […]

CC1=C(/C=C/C(C)=C\C=C\C(C)=C\C(=O)O)C(C)(C)CCC1 [9-cis RA, 9-cis retinoic acid]
time after discontinuation of treatment until inflammation decreases to 0 ([1]; 0.1% to 1.0%, depending on the concentration (days 18 to 22)): 4 to 8 days
signs or symptoms of skin inflammation ([1]; 0.1%, 0.3% and 1.0% epicutaneous twice daily, around the tenth and eleventh day): slight erythema, desquamation and pruritus
signs or symptoms of skin inflammation ([1]; 0.1%, 0.3% and 1.0% epicutaneous twice daily, first 9 days after start of treatment, one volunteer): no signs or symptoms of skin inflammation
signs or symptoms of skin inflammation ([1]; 0.1 and 0.3% epicutaneous twice daily, days 12, 13 and 14): moderate inflammation
signs or symptoms of skin inflammation ([1]; 1.0% epicutaneous twice daily, days 12, 13 and 14): marked inflammation
MMP-1 mRNA in relative units (fold increase of baseline value) ([2]; 10^−7 M, after 24 hours): 2.60 relative units
MMP-1 mRNA in relative units (fold increase of baseline value) ([2]; 10^−8 M, 0 hours): 1 relative units
MMP-1 mRNA in relative units (fold increase of baseline value) ([2]; 10^−8 M, 2 hours): 0.98 relative units
MMP-1 mRNA in relative units (fold increase of baseline value) ([2]; 10^−8 M, 6 hours): 1.31 relative units
MMP-1 mRNA in relative units (fold increase of baseline value) ([2]; 10^−8 M, 12 hours): 3.39 relative units
MMP-1 mRNA in relative units (fold increase of baseline value) ([2]; 10^−8 M, 24 hours): 3.79 relative units
MMP-1 mRNA in relative units (fold increase of baseline value) ([2]; 10^−8 M, 48 hours): 1.47 relative units
MMP-1 mRNA in relative units (fold increase of baseline value) ([2]; 10^−8 M, after 24 hours): 3.39 relative units
MMP-1 mRNA in relative units (fold increase of baseline value) ([2]; 10^−9 M, after 24 hours): 1.54 relative units
sGAG in μg/ml (release of sGAG/14 days) ([3]; 10^−7 M, absence of IL-1β): 189 µg/mL
sGAG in μg/ml (release of sGAG/14 days) ([3]; 10^−7 M, presence of 100 pg/ml IL-1β): 221 µg/mL
sGAG in μg/ml (release of sGAG/14 days) ([3]; 10^−8 M, absence of IL-1β): 107 µg/mL
Cumulative μg/ml sGAG/14 days ([3]; 10^−8 M, absence of IL-1β, day 7): 44 µg/mL
Cumulative μg/ml sGAG/14 days ([3]; 10^−8 M, absence of IL-1β, day 14): 107 µg/mL
Cumulative μg/ml sGAG/14 days ([3]; 10^−8 M, absence of IL-1β, day 21): 206 µg/mL
Cumulative μg/ml sGAG/14 days ([3]; 10^−8 M, absence of IL-1β, day 28): 253 µg/mL
Cumulative μg/ml sGAG/14 days ([3]; 10^−8 M, absence of IL-1β, day 35): 292 µg/mL
sGAG in μg/ml (release of sGAG/14 days) ([3]; 10^−8 M, presence of 100 pg/ml IL-1β): 189 µg/mL
Cumulative μg/ml sGAG/14 days ([3]; 10^−8 M, presence of 100 pg/ml IL-1β, day 7): 68 µg/mL
Cumulative μg/ml sGAG/14 days ([3]; 10^−8 M, presence of 100 pg/ml IL-1β, day 14): 189 µg/mL
Cumulative μg/ml sGAG/14 days ([3]; 10^−8 M, presence of 100 pg/ml IL-1β, day 21): 330 µg/mL
Cumulative μg/ml sGAG/14 days ([3]; 10^−8 M, presence of 100 pg/ml IL-1β, day 28): 407 µg/mL
Cumulative μg/ml sGAG/14 days ([3]; 10^−8 M, presence of 100 pg/ml IL-1β, day 35): 441 µg/mL
sGAG in μg/ml (release of sGAG/14 days) ([3]; 10^−9 M, absence of IL-1β): 64 µg/mL
sGAG in μg/ml (release of sGAG/14 days) ([3]; 10^−9 M, presence of 100 pg/ml IL-1β): 204 µg/mL

CCCCOc1c(\C(C)=C/C=C/C(C)=C/C(=O)O)cc(C(C)(C)C)cc1C(C)(C)C [compound A, (2E,4E,6Z)-7-[2-butoxy-3,5-bis(1,1-dimethylethyl)-phenyl]-3-methyl-2,4,6-octatrienoic acid]
skin inflammation, objective or subjective symptoms ([1]; 1% epicutaneous twice daily day 1-14, observation to day 28): no skin inflammation
MPO activity compared to the vehicle control, normal skin ([4]; compound A 0.05%, epicutaneous, 4 days): no significant change
MPO activity in % of that of the vehicle control, normal skin ([4]; compound A 2.5%, epicutaneous, 4 days): 57%
clinical signs or symptoms of a skin inflammation on normal skin ([4]; epicutaneous 0.05% and 2.5% in acetone/ethanol, 4 consecutive days): does not induce clinical signs or symptoms of a skin inflammation
reduction of the inflammatory reaction compared to vehicle control (skin thickness, erythema, area of inflamed skin) [5]: very marked
reduction of all parameters in comparison to the values of 9-cis RA [6]: ≥ 50%
